How the values were obtained:
Assay in all cases: relative viability (nuclei count vs DMSO), 5 days (fraction); higher = more cells survive
XMD8-85 + AZD7762 = compound: CN1CCN(CC1)C2=CC(=C(C=C2)NC3=NC=C4C(=N3)N(C5=CC=CC=C5C(=O)N4C)C)OC [XMD8-85] + NC(=O)Nc1cc(-c2cccc(F)c2)sc1C(=O)N[C@H]1CCCNC1 [AZD7762] (partner 0.2 µM)
Procedure, shortened: (§1)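 The day after seeding in 1536-well plates, lung cancer cell lines were treated by pin tool with a single drug, or with a fixed anchor-drug dose together with five library-drug doses (not always all listed) in √10 steps. After 5 days, a combined fix-and-stain solution (final 0.05% Triton X-100, 1% formaldehyde, 1 ug/ml Hoechst) was added. Nuclei counted on 4× images gave relative viability as treated counts over vehicle counts, reported as the median of duplicate plates.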

4EGI-1 + Lapatinib = compound: O=C(O)C(Cc1ccccc1[N+](=O)[O-])=NNc1nc(-c2ccc(Cl)c(Cl)c2)cs1 (mixture of isomers) [4EGI-1] + CS(=O)(=O)CCNCc1ccc(-c2ccc3ncnc(Nc4ccc(OCc5cccc(F)c5)c(Cl)c4)c3c2)o1 [Lapatinib] (partner 2 µM)
Procedure, shortened: as §1

4EGI-1 + Linsitinib = compound: O=C(O)C(Cc1ccccc1[N+](=O)[O-])=NNc1nc(-c2ccc(Cl)c(Cl)c2)cs1 (mixture of isomers) [4EGI-1] + C[C@]1(O)C[C@@H](c2nc(-c3ccc4ccc(-c5ccccc5)nc4c3)c3c(N)nccn32)C1 [Linsitinib] (partner 1 µM)
Procedure, shortened: as §1

4EGI-1 + Pemetrexed = compound: O=C(O)C(Cc1ccccc1[N+](=O)[O-])=NNc1nc(-c2ccc(Cl)c(Cl)c2)cs1 (mixture of isomers) [4EGI-1] + Nc1nc2[nH]cc(CCc3ccc(C(=O)N[C@@H](CCC(=O)O)C(=O)O)cc3)c2c(=O)[nH]1 [Pemetrexed] (partner 0.2 µM)
Procedure, shortened: as §1

Question: What does the source list for NCI-H1792?
Answer: relative viability (XMD8-85 + AZD7762; first compound 0.8 µM): 0.647; relative viability (XMD8-85 + AZD7762; first compound 2.53 µM): 0.694; relative viability (XMD8-85 + AZD7762; first compound 8 µM): 0.574; relative viability (4EGI-1 + Lapatinib; first compound 0.5 µM): 0.84; relative viability (4EGI-1 + Lapatinib; first compound 1.581 µM): 0.864; relative viability (4EGI-1 + Lapatinib; first compound 5 µM): 0.899; relative viability (4EGI-1 + Lapatinib; first compound 15.81 µM): 0.816; relative viability (4EGI-1 + Lapatinib; first compound 50 µM): 0.557; relative viability (4EGI-1 + Linsitinib; first compound 0.5 µM): 0.613; relative viability (4EGI-1 + Linsitinib; first compound 1.581 µM): 0.444; relative viability (4EGI-1 + Linsitinib; first compound 5 µM): 0.48; relative viability (4EGI-1 + Linsitinib; first compound 15.81 µM): 0.441; relative viability (4EGI-1 + Linsitinib; first compound 50 µM): 0.472; relative viability (4EGI-1 + Pemetrexed; first compound 0.5 µM): 1.05; relative viability (4EGI-1 + Pemetrexed; first compound 1.581 µM): 0.952; relative viability (4EGI-1 + Pemetrexed; first compound 5 µM): 0.833; relative viability (4EGI-1 + Pemetrexed; first compound 15.81 µM): 0.841; relative viability (4EGI-1 + Pemetrexed; first compound 50 µM): 0.463

Source: the supplement of paper PMC10307832
